Test results as given in ChEMBL document CHEMBL1201862, “PubChem BioAssay data set” (2004).
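Method: 48-hour compound exposure of cells in 96-well plates, five concentrations, linear interpolation of endpoints. At the GI50, growth is halved.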 Calls of active or inactive are those of the source. No stated cut-off is given here; in the data, active = GI50 up to about 1.1 µM and inactive = higher.

Tests used:
Assay in all cases: NCI-60 cell line screen, 48 h
SR = test system: SR
CCRF-CEM = test system: CCRF-CEM
SNB-19 = test system: SNB-19
HCT-116 = test system: HCT-116
NCI-H23 = test system: NCI-H23
SF-539 = test system: SF-539
SK-MEL-28 = test system: SK-MEL-28
MOLT-4 = test system: MOLT-4
SNB-75 = test system: SNB-75
M14 = test system: M14
NCI-H460 = test system: NCI-H460
OVCAR-5 = test system: OVCAR-5
UO-31 = test system: UO-31
HL-60 = test system: HL-60
ACHN = test system: ACHN
OVCAR-8 = test system: OVCAR-8
IGROV-1 = test system: IGROV-1
SF-268 = test system: SF-268

Measured: GI50

CCCOP(=O)(OCCC)OC(C(F)(F)F)C(F)(F)F
inactive: SR > 100 µM | CCRF-CEM > 100 µM | SNB-19 > 100 µM | HCT-116 > 100 µM | NCI-H23 > 100 µM | SF-539 > 100 µM | SK-MEL-28 > 100 µM | MOLT-4 > 100 µM | SNB-75 > 100 µM | M14 > 100 µM | NCI-H460 > 100 µM | OVCAR-5 > 100 µM | UO-31 > 100 µM | HL-60 > 100 µM | ACHN > 100 µM

Clc1ccc2c(Cl)nc(-c3ccccc3)nc2c1
inactive: SR 25.2 µM | CCRF-CEM 22.9 µM | SNB-19 35.6 µM | HCT-116 27.4 µM | NCI-H23 10.7 µM | OVCAR-8 34 µM | SK-MEL-28 32.2 µM | MOLT-4 20.2 µM | IGROV-1 24.5 µM | SNB-75 17.7 µM | SF-268 24.9 µM | NCI-H460 24.3 µM | OVCAR-5 51.8 µM | UO-31 24.5 µM | HL-60 20.2 µM | ACHN 20.9 µM

O=Cc1cn(C(=O)c2ccccc2)c2ccccc12
inactive: CCRF-CEM 43.2 µM | HCT-116 43.2 µM | NCI-H23 80.4 µM | OVCAR-8 > 100 µM | SF-539 80 µM | SK-MEL-28 > 100 µM | MOLT-4 54.2 µM | IGROV-1 > 100 µM | SNB-75 43.6 µM | M14 > 100 µM | NCI-H460 > 100 µM | OVCAR-5 > 100 µM | UO-31 36.6 µM | HL-60 28.7 µM | ACHN > 100 µM

CCOC(=O)[C@H]1Nc2ccc(Cl)cc2[C@H]2OCC[C@@H]12
inactive: CCRF-CEM > 100 µM | SNB-19 > 100 µM | HCT-116 > 100 µM | NCI-H23 > 100 µM | OVCAR-8 > 100 µM | SF-539 > 100 µM | SK-MEL-28 > 100 µM | MOLT-4 > 100 µM | IGROV-1 > 100 µM | SNB-75 > 100 µM | SF-268 > 100 µM | M14 > 100 µM | NCI-H460 > 100 µM | OVCAR-5 > 100 µM | HL-60 > 100 µM | ACHN > 100 µM

COc1cc(OC)c(C#N)c(OC)c1C
inactive: SR > 100 µM | CCRF-CEM > 100 µM | SNB-19 > 100 µM | NCI-H23 > 100 µM | OVCAR-8 > 100 µM | SF-539 > 100 µM | SK-MEL-28 > 100 µM | MOLT-4 > 100 µM | SF-268 > 100 µM | NCI-H460 > 100 µM | OVCAR-5 98.4 µM | UO-31 > 100 µM | HL-60 > 100 µM | ACHN > 100 µM

O=C(c1ccccc1)[C@H]1Nc2ccc(Cl)cc2[C@H]2OCCC[C@@H]12
inactive: SR 26.1 µM | SNB-19 27.6 µM | HCT-116 16.3 µM | NCI-H23 24.7 µM | OVCAR-8 20.9 µM | SK-MEL-28 18.2 µM | MOLT-4 16.8 µM | IGROV-1 39 µM | SF-268 19 µM | M14 17.5 µM | NCI-H460 18 µM | OVCAR-5 15.9 µM | UO-31 15.9 µM | ACHN 31.3 µM

CN(C)CCC(/C=C/c1ccccc1)=N\Nc1c(F)c(F)c(F)c(F)c1F
inactive: SR 28.4 µM | CCRF-CEM 55.6 µM | SNB-19 > 100 µM | HCT-116 > 100 µM | NCI-H23 > 100 µM | OVCAR-8 53.8 µM | SF-539 > 100 µM | SK-MEL-28 > 100 µM | MOLT-4 45.1 µM | IGROV-1 > 100 µM | SNB-75 9.82 µM | SF-268 > 100 µM | M14 44.1 µM | NCI-H460 27.7 µM | OVCAR-5 > 100 µM | UO-31 76.4 µM | HL-60 16 µM | ACHN 49.1 µM

O=P(Nc1cccc(Cl)c1)(Oc1ccccc1)N(CCCl)CCCl (stereo unspecified)
inactive: SR 31.6 µM | CCRF-CEM > 100 µM | HCT-116 13.1 µM | NCI-H23 16.5 µM | OVCAR-8 17 µM | SF-539 16.7 µM | SK-MEL-28 16.6 µM | MOLT-4 17.4 µM | IGROV-1 15.8 µM | SNB-75 15.6 µM | SF-268 15.1 µM | M14 15.2 µM | OVCAR-5 14.5 µM | UO-31 85.9 µM | HL-60 70.6 µM | ACHN 16.7 µM

COC(=O)C(Cc1nc2ccccc2nc1O)C(=O)C(=O)Nc1ccc(F)cc1 (stereo unspecified)
inactive: SR 33 µM | CCRF-CEM 27.3 µM | SNB-19 > 100 µM | HCT-116 41.2 µM | NCI-H23 34 µM | OVCAR-8 20 µM | SF-539 37 µM | SK-MEL-28 27.4 µM | MOLT-4 58.6 µM | IGROV-1 53.5 µM | SNB-75 28.8 µM | SF-268 13.1 µM | M14 74.8 µM | NCI-H460 > 100 µM | UO-31 > 100 µM | HL-60 45.5 µM | ACHN > 100 µM

COc1ccc(/C=C/C(=N\NC(=O)c2ccccc2)c2sc(Nc3ccc([N+](=O)[O-])cc3)nc2C)cc1OC
inactive: SR 5.18 µM | CCRF-CEM 2.34 µM | SNB-19 12.4 µM | HCT-116 7.31 µM | NCI-H23 > 10 µM | OVCAR-8 9.57 µM | SF-539 21.1 µM | SK-MEL-28 21.1 µM | MOLT-4 2.77 µM | IGROV-1 > 10 µM | SNB-75 5.57 µM | SF-268 13.2 µM | M14 14.1 µM | NCI-H460 16.5 µM | OVCAR-5 27.7 µM | UO-31 15.6 µM | HL-60 2.62 µM | ACHN 14.7 µM

CCOC(=O)CC(=O)ON(C)C(=O)Cc1ccccc1
inactive: SR > 100 µM | CCRF-CEM > 100 µM | SNB-19 > 100 µM | HCT-116 > 100 µM | NCI-H23 > 100 µM | OVCAR-8 > 100 µM | SF-539 > 100 µM | IGROV-1 > 100 µM | SF-268 > 100 µM | M14 > 100 µM | NCI-H460 > 100 µM | OVCAR-5 > 100 µM | UO-31 > 100 µM | HL-60 > 100 µM | ACHN > 100 µM

C[P+](C)(C)c1ccccc1
inactive: SR > 100 µM | CCRF-CEM > 100 µM | SNB-19 > 100 µM | HCT-116 > 100 µM | NCI-H23 > 100 µM | OVCAR-8 > 100 µM | SF-539 > 100 µM | SK-MEL-28 > 100 µM | MOLT-4 > 100 µM | IGROV-1 > 100 µM | SNB-75 > 100 µM | SF-268 > 100 µM | M14 > 100 µM | NCI-H460 > 100 µM | OVCAR-5 > 100 µM | UO-31 > 100 µM | HL-60 > 100 µM | ACHN > 100 µM

CCOC(OC1=C(C#N)CCCC1)C(CC)[Se]c1ccccc1[N+](=O)[O-] (stereo unspecified)
inactive: SR 16.7 µM | CCRF-CEM 20.6 µM | SNB-19 29 µM | HCT-116 19.4 µM | NCI-H23 16.7 µM | OVCAR-8 24 µM | SF-539 20 µM | SK-MEL-28 34 µM | MOLT-4 25.6 µM | IGROV-1 23.9 µM | SNB-75 21.9 µM | SF-268 23 µM | M14 17.9 µM | NCI-H460 34.2 µM | OVCAR-5 31.4 µM | UO-31 26.8 µM | HL-60 17.1 µM | ACHN 29.1 µM

Cc1cc(N(CCC#N)CCC#N)ccc1/N=N/c1cccc(C(=O)O)c1
inactive: CCRF-CEM > 100 µM | NCI-H23 > 100 µM | OVCAR-8 > 100 µM | SF-539 > 100 µM | SK-MEL-28 97.7 µM | MOLT-4 > 100 µM | IGROV-1 > 100 µM | SNB-75 34.1 µM | SF-268 > 100 µM | M14 > 100 µM | OVCAR-5 > 100 µM | UO-31 > 100 µM | HL-60 > 100 µM | ACHN > 100 µM

Cc1cc(O)nc(NNC(C#N)c2cccc(O)c2)n1 (stereo unspecified)
inactive: SR > 100 µM | CCRF-CEM > 100 µM | HCT-116 > 100 µM | NCI-H23 > 100 µM | OVCAR-8 > 100 µM | SF-539 > 100 µM | SK-MEL-28 > 100 µM | MOLT-4 > 100 µM | IGROV-1 > 100 µM | SNB-75 > 100 µM | SF-268 > 100 µM | M14 > 100 µM | NCI-H460 > 100 µM | OVCAR-5 > 100 µM | UO-31 > 100 µM | HL-60 > 100 µM | ACHN > 100 µM

COc1ccc(C2Oc3cc(OC)c(O)cc3[C@@H]2C)cc1 (stereo partly specified)
inactive: CCRF-CEM 15.5 µM | SNB-19 1.87 µM | HCT-116 12.8 µM | NCI-H23 23.6 µM | OVCAR-8 23.2 µM | SF-539 > 100 µM | SK-MEL-28 56.8 µM | MOLT-4 14.9 µM | IGROV-1 > 10 µM | SNB-75 3.08 µM | SF-268 48.8 µM | M14 19.1 µM | NCI-H460 57.9 µM | OVCAR-5 > 100 µM | UO-31 13.8 µM | HL-60 18.2 µM | ACHN 16.5 µM

O=C(c1ccc(O)cc1O)C1C(c2ccc(O)cc2)OC(c2ccc(O)cc2)C1C(=O)c1ccc(O)cc1O (stereo unspecified)
inactive: SNB-19 20.6 µM | NCI-H23 30 µM | OVCAR-8 21.8 µM | SF-539 20 µM | SK-MEL-28 19.4 µM | SNB-75 16.6 µM | SF-268 17.1 µM | M14 18 µM | NCI-H460 42.8 µM | OVCAR-5 12.6 µM | UO-31 18.7 µM | HL-60 17.8 µM | ACHN 22.2 µM
